Measurements as given in ChEMBL document CHEMBL2407067, “Pyridone-conjugated monobactam antibiotics with gram-negative activity” (J Med Chem, 2013).
Converted amounts (≈) assume the structure as drawn.

Key:
Acinetobacter baumannii = test: Antibacterial activity against Acinetobacter baumannii AB-3167 by broth microdilution method; format: functional
Klebsiella pneumoniae [1] = test: Antibacterial activity against Klebsiella pneumoniae 1487-07 by broth microdilution method; format: functional
Klebsiella pneumoniae [2] = test: Antibacterial activity against Klebsiella pneumoniae 1000-02 by broth microdilution method; format: functional
Pseudomonas aeruginosa [3] = test: Antibacterial activity against Pseudomonas aeruginosa 1042-06 by broth microdilution method; format: functional
Pseudomonas aeruginosa [4] = test: microbe, parasite or virus in culture; conditions: 1091-05
Description: Antibacterial activity against Pseudomonas aeruginosa 1091-05 by broth microdilution method

Pseudomonas aeruginosa [5] = test: Antibacterial activity against Pseudomonas aeruginosa from cystic fibrosis patients by broth microdilution method; format: functional
Acinetobacter sp. = test: Antibacterial activity against Acinetobacter spp. by broth microdilution method; format: functional
Escherichia coli [6] = test: Antibacterial activity against Escherichia coli expressing defined beta-lactamase by broth microdilution method; format: functional
Escherichia coli [7] = test: Antibacterial activity against Escherichia coli expressing CTX-M by broth microdilution method; format: functional
Escherichia coli [8] = test: Antibacterial activity against Escherichia coli expressing ESBL by broth microdilution method; format: functional
Klebsiella pneumoniae [9] = test: Antibacterial activity against Klebsiella pneumoniae expressing KPC by broth microdilution method; format: functional
Klebsiella pneumoniae [10] = test: Antibacterial activity against Klebsiella pneumoniae expressing ESBL by broth microdilution method; format: functional
Klebsiella pneumoniae [11] = test: Antibacterial activity against Klebsiella pneumoniae expressing defined beta-lactamase by broth microdilution method; format: functional
Pseudomonas aeruginosa [12] = test: Antibacterial activity against Pseudomonas aeruginosa expressing metallo-beta-lactamase by broth microdilution method; format: functional

COn1cc(O)c(=O)cc1C(=O)NC[C@@H]1[C@H](NC(=O)/C(=N\OC(C)(C)C(=O)O)c2csc(N)n2)C(=O)N1S(=O)(=O)O
MIC (Acinetobacter baumannii): 1 µg/mL (≈ 1.62 µM) | MIC (Klebsiella pneumoniae [1]): 8 µg/mL (≈ 13 µM) | MIC (Klebsiella pneumoniae [2]): 1 µg/mL (≈ 1.62 µM) | MIC (Pseudomonas aeruginosa [3]): 4 µg/mL (≈ 6.48 µM) | MIC (Pseudomonas aeruginosa [4]): 1 µg/mL (≈ 1.62 µM)

Cn1cc(O)c(=O)cc1C(=O)NC[C@@H]1[C@H](NC(=O)/C(=N\OC(C)(C)C(=O)O)c2csc(N)n2)C(=O)N1S(=O)(=O)O
MIC (Acinetobacter baumannii): 4 µg/mL (≈ 6.65 µM) | MIC (Klebsiella pneumoniae [1]): 4 µg/mL (≈ 6.65 µM) | MIC (Pseudomonas aeruginosa [3]): 4 µg/mL (≈ 6.65 µM) | MIC (Pseudomonas aeruginosa [4]): 4 µg/mL (≈ 6.65 µM)

Nc1nc(/C(=N/OCc2cscn2)C(=O)N[C@@H]2C(=O)N(S(=O)(=O)O)[C@@H]2CNC(=O)NCc2cc(=O)c(O)cn2O)cs1
MIC (Acinetobacter baumannii): 1 µg/mL (≈ 1.55 µM) | MIC (Klebsiella pneumoniae [1]): 16 µg/mL (≈ 24.9 µM) | MIC (Klebsiella pneumoniae [2]): 16 µg/mL (≈ 24.9 µM) | MIC (Pseudomonas aeruginosa [3]): > 64 µg/mL | MIC (Pseudomonas aeruginosa [4]): 1 µg/mL (≈ 1.55 µM)

CC(C)(O/N=C(\C(=O)N[C@@H]1C(=O)N(S(=O)(=O)O)[C@@H]1CNC(=O)c1[nH]ccc(=O)c1O)c1csc(N)n1)C(=O)O
MIC (Acinetobacter baumannii): 32 µg/mL (≈ 54.5 µM) | MIC (Klebsiella pneumoniae [1]): 64 µg/mL (≈ 109 µM) | MIC (Klebsiella pneumoniae [2]): 32 µg/mL (≈ 54.5 µM) | MIC (Pseudomonas aeruginosa [3]): > 64 µg/mL | MIC (Pseudomonas aeruginosa [4]): 32 µg/mL (≈ 54.5 µM)

NCC[C@H](O)C(=O)N[C@@H]1C[C@H](N)[C@@H](O[C@H]2O[C@H](CN)[C@@H](O)[C@H](O)[C@H]2O)[C@H](O)[C@H]1O[C@H]1O[C@H](CO)[C@@H](O)[C@H](N)[C@H]1O [AMIKACIN]
MIC50 (Pseudomonas aeruginosa [5]): 8 µg/mL (≈ 13.7 µM) | MIC90 (Pseudomonas aeruginosa [5]): > 64 µg/mL | MIC50 (Acinetobacter sp.): 4 µg/mL (≈ 6.83 µM) | MIC90 (Acinetobacter sp.): > 64 µg/mL | MIC50 (Escherichia coli [6]): 1 µg/mL (≈ 1.71 µM) | MIC90 (Escherichia coli [6]): 16 µg/mL (≈ 27.3 µM) | MIC50 (Escherichia coli [7]): 8 µg/mL (≈ 13.7 µM) | MIC90 (Escherichia coli [7]): 32 µg/mL (≈ 54.6 µM) | MIC50 (Escherichia coli [8]): 8 µg/mL (≈ 13.7 µM) | MIC90 (Escherichia coli [8]): 64 µg/mL (≈ 109 µM) | MIC50 (Klebsiella pneumoniae [9]): 32 µg/mL (≈ 54.6 µM) | MIC90 (Klebsiella pneumoniae [9]): > 64 µg/mL | MIC50 (Klebsiella pneumoniae [10]): 4 µg/mL (≈ 6.83 µM) | MIC90 (Klebsiella pneumoniae [10]): 64 µg/mL (≈ 109 µM) | MIC50 (Klebsiella pneumoniae [11]): 4 µg/mL (≈ 6.83 µM) | MIC90 (Klebsiella pneumoniae [11]): > 64 µg/mL | MIC50 (Pseudomonas aeruginosa [12]): > 64 µg/mL | MIC90 (Pseudomonas aeruginosa [12]): > 64 µg/mL | MIC (Acinetobacter baumannii): 1 µg/mL (≈ 1.71 µM) | MIC (Klebsiella pneumoniae [1]): 64 µg/mL (≈ 109 µM) | MIC (Pseudomonas aeruginosa [3]): 8 µg/mL (≈ 13.7 µM) | MIC (Pseudomonas aeruginosa [4]): 2 µg/mL (≈ 3.42 µM)

CC(C)(O/N=C(\C(=O)N[C@@H]1C(=O)N(S(=O)(=O)O)[C@@H]1CNC(=O)c1cc(=O)c(O)co1)c1csc(N)n1)C(=O)O
MIC (Acinetobacter baumannii): 8 µg/mL (≈ 13.6 µM) | MIC (Klebsiella pneumoniae [1]): 64 µg/mL (≈ 109 µM) | MIC (Klebsiella pneumoniae [2]): 32 µg/mL (≈ 54.4 µM) | MIC (Pseudomonas aeruginosa [3]): 64 µg/mL (≈ 109 µM) | MIC (Pseudomonas aeruginosa [4]): 8 µg/mL (≈ 13.6 µM)

CC(C)(O/N=C(\C(=O)N[C@@H]1C(=O)N(S(=O)(=O)O)[C@@H]1CNC(=O)c1cc(=O)c(O)cn1CC(=O)O)c1csc(N)n1)C(=O)O
MIC (Acinetobacter baumannii): 1 µg/mL (≈ 1.55 µM) | MIC (Klebsiella pneumoniae [1]): 4 µg/mL (≈ 6.2 µM) | MIC (Klebsiella pneumoniae [2]): 0.25 µg/mL (≈ 0.387 µM) | MIC (Pseudomonas aeruginosa [3]): 2 µg/mL (≈ 3.1 µM) | MIC (Pseudomonas aeruginosa [4]): 1 µg/mL (≈ 1.55 µM)

CC(C)(O/N=C(\C(=O)N[C@@H]1C(=O)N(S(=O)(=O)O)[C@@H]1CNc1cc(C(=O)NCc2cc(=O)c(O)cn2O)ccn1)c1csc(N)n1)C(=O)O
MIC (Acinetobacter baumannii): 0.125 µg/mL (≈ 0.176 µM) | MIC (Klebsiella pneumoniae [1]): 16 µg/mL (≈ 22.5 µM) | MIC (Pseudomonas aeruginosa [3]): 1 µg/mL (≈ 1.41 µM)

CNn1cc(O)c(=O)cc1C(=O)NC[C@@H]1[C@H](NC(=O)/C(=N\OC(C)(C)C(=O)O)c2csc(N)n2)C(=O)N1S(=O)(=O)O
MIC (Acinetobacter baumannii): 2 µg/mL (≈ 3.24 µM) | MIC (Klebsiella pneumoniae [1]): 8 µg/mL (≈ 13 µM) | MIC (Klebsiella pneumoniae [2]): 0.5 µg/mL (≈ 0.811 µM) | MIC (Pseudomonas aeruginosa [3]): 8 µg/mL (≈ 13 µM) | MIC (Pseudomonas aeruginosa [4]): 2 µg/mL (≈ 3.24 µM)

CC(C)(O/N=C(\C(=O)N[C@@H]1C(=O)N(S(=O)(=O)O)[C@@H]1Cn1cc(-c2cc(=O)c(O)cn2O)nn1)c1csc(N)n1)C(=O)O
MIC (Acinetobacter baumannii): 0.125 µg/mL (≈ 0.199 µM) | MIC (Pseudomonas aeruginosa [4]): 0.125 µg/mL (≈ 0.199 µM)

CC(C)(O/N=C(\C(=O)N[C@@H]1C(=O)N(S(=O)(=O)O)[C@@H]1CNS(=O)(=O)NCc1cc(=O)c(O)cn1O)c1csc(N)n1)C(=O)O
MIC (Acinetobacter baumannii): 1 µg/mL (≈ 1.5 µM) | MIC (Klebsiella pneumoniae [1]): 32 µg/mL (≈ 47.9 µM) | MIC (Pseudomonas aeruginosa [3]): 16 µg/mL (≈ 23.9 µM) | MIC (Pseudomonas aeruginosa [4]): 1 µg/mL (≈ 1.5 µM)

Nc1nc(/C(=N/Oc2ccccc2)C(=O)N[C@@H]2C(=O)N(S(=O)(=O)O)[C@@H]2CNC(=O)NCc2cc(=O)c(O)cn2O)cs1
MIC (Acinetobacter baumannii): 0.5 µg/mL (≈ 0.803 µM) | MIC (Klebsiella pneumoniae [1]): > 64 µg/mL | MIC (Klebsiella pneumoniae [2]): > 64 µg/mL | MIC (Pseudomonas aeruginosa [3]): 16 µg/mL (≈ 25.7 µM) | MIC (Pseudomonas aeruginosa [4]): 0.5 µg/mL (≈ 0.803 µM)

C[C@@H](O)[C@H]1C(=O)N2C(C(=O)O)=C(S[C@@H]3CN[C@H](C(=O)N(C)C)C3)[C@H](C)[C@H]12 [MEROPENEM]
MIC50 (Pseudomonas aeruginosa [5]): 1 µg/mL (≈ 2.61 µM) | MIC90 (Pseudomonas aeruginosa [5]): 16 µg/mL (≈ 41.7 µM) | MIC50 (Acinetobacter sp.): 1 µg/mL (≈ 2.61 µM) | MIC90 (Acinetobacter sp.): 32 µg/mL (≈ 83.4 µM) | MIC50 (Escherichia coli [6]): 0.03 µg/mL (≈ 0.0782 µM) | MIC90 (Escherichia coli [6]): 0.06 µg/mL (≈ 0.156 µM) | MIC50 (Escherichia coli [7]): 0.03 µg/mL (≈ 0.0782 µM) | MIC90 (Escherichia coli [7]): 0.06 µg/mL (≈ 0.156 µM) | MIC50 (Escherichia coli [8]): 0.03 µg/mL (≈ 0.0782 µM) | MIC90 (Escherichia coli [8]): 0.06 µg/mL (≈ 0.156 µM) | MIC50 (Klebsiella pneumoniae [9]): 32 µg/mL (≈ 83.4 µM) | MIC90 (Klebsiella pneumoniae [9]): > 64 µg/mL | MIC50 (Klebsiella pneumoniae [10]): 0.03 µg/mL (≈ 0.0782 µM) | MIC90 (Klebsiella pneumoniae [10]): 0.25 µg/mL (≈ 0.652 µM) | MIC50 (Klebsiella pneumoniae [11]): 0.03 µg/mL (≈ 0.0782 µM) | MIC90 (Klebsiella pneumoniae [11]): 0.25 µg/mL (≈ 0.652 µM) | MIC (Acinetobacter baumannii): 0.25 µg/mL (≈ 0.652 µM) | MIC (Klebsiella pneumoniae [2]): 0.25 µg/mL (≈ 0.652 µM) | MIC (Pseudomonas aeruginosa [4]): 2 µg/mL (≈ 5.22 µM)

Nc1nc(/C(=N/OCCCC(=O)O)C(=O)N[C@@H]2C(=O)N(S(=O)(=O)O)[C@@H]2CNC(=O)NCc2cc(=O)c(O)cn2O)cs1
MIC (Acinetobacter baumannii): 0.5 µg/mL (≈ 0.79 µM) | MIC (Klebsiella pneumoniae [1]): > 64 µg/mL | MIC (Klebsiella pneumoniae [2]): 32 µg/mL (≈ 50.6 µM) | MIC (Pseudomonas aeruginosa [3]): 8 µg/mL (≈ 12.6 µM) | MIC (Pseudomonas aeruginosa [4]): 0.5 µg/mL (≈ 0.79 µM)

CO/N=C(\C(=O)N[C@@H]1C(=O)N2C(C(=O)[O-])=C(C[N+]3(C)CCCC3)CS[C@H]12)c1csc(N)n1
MIC50 (Pseudomonas aeruginosa [5]): 8 µg/mL (≈ 16.6 µM) | MIC90 (Pseudomonas aeruginosa [5]): > 64 µg/mL | MIC50 (Acinetobacter sp.): 8 µg/mL (≈ 16.6 µM) | MIC90 (Acinetobacter sp.): > 64 µg/mL | MIC50 (Escherichia coli [6]): 0.25 µg/mL (≈ 0.52 µM) | MIC90 (Escherichia coli [6]): 4 µg/mL (≈ 8.32 µM) | MIC50 (Escherichia coli [7]): 64 µg/mL (≈ 133 µM) | MIC90 (Escherichia coli [7]): > 64 µg/mL | MIC50 (Escherichia coli [8]): 64 µg/mL (≈ 133 µM) | MIC90 (Escherichia coli [8]): > 64 µg/mL | MIC50 (Klebsiella pneumoniae [9]): > 64 µg/mL | MIC90 (Klebsiella pneumoniae [9]): > 64 µg/mL | MIC50 (Klebsiella pneumoniae [10]): 8 µg/mL (≈ 16.6 µM) | MIC90 (Klebsiella pneumoniae [10]): > 64 µg/mL | MIC50 (Klebsiella pneumoniae [11]): 4 µg/mL (≈ 8.32 µM) | MIC90 (Klebsiella pneumoniae [11]): > 64 µg/mL | MIC50 (Pseudomonas aeruginosa [12]): > 64 µg/mL | MIC90 (Pseudomonas aeruginosa [12]): > 64 µg/mL | MIC (Acinetobacter baumannii): 2 µg/mL (≈ 4.16 µM) | MIC (Klebsiella pneumoniae [1]): > 64 µg/mL | MIC (Pseudomonas aeruginosa [4]): 2 µg/mL (≈ 4.16 µM)
